Inconclusive results and toxic doses are left out. The calls were made as follows: active = survival T/C of 150% or more; inactive = T/C below 125% in these data.
Tested on: CD2F1 mice, L1210 leukemia ip, survival T/C
Assay: NCI In Vivo Anticancer Drug Screen. Data for tumor model L1210 Leukemia (intraperitoneal) in CD2F1 (CDF1) mice
Conditions: higher = longer survival
Procedure, shortened: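 Tumor-bearing mice (transplanted tumor) were split into treated and vehicle control groups, and the measured endpoint of each treated group was divided by that of its vehicle controls.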

[1] = endpoint: mean survival time, dose: 100.0 mg/kg/injection, schedule: Q01DX001 (ip), vehicle: saline
[2] = endpoint: mean survival time, dose: 100.0 mg/kg/injection, schedule: Q01DX001 (ip), vehicle: saline with Tween-80
[3] = endpoint: mean survival time, dose: 100.0 mg/kg/injection, schedule: Q04DX002 (ip), vehicle: saline with Tween-80
[4] = endpoint: mean survival time, dose: 200.0 mg/kg/injection, schedule: Q01DX001 (ip), vehicle: saline with Tween-80
[5] = endpoint: mean survival time, dose: 200.0 mg/kg/injection, schedule: Q04DX002 (ip), vehicle: saline with Tween-80
[6] = endpoint: mean survival time, dose: 400.0 mg/kg/injection, schedule: Q01DX001 (ip), vehicle: saline with Tween-80
[7] = endpoint: mean survival time, dose: 400.0 mg/kg/injection, schedule: Q04DX002 (ip), vehicle: saline with Tween-80
[8] = endpoint: mean survival time, dose: 12.5 mg/kg/injection, schedule: Q01DX009 (ip), vehicle: saline with Tween-80
[9] = endpoint: mean survival time, dose: 100.0 mg/kg/injection, schedule: Q01DX009 (ip), vehicle: saline with Tween-80
[10] = endpoint: mean survival time, dose: 100.0 mg/kg/injection, schedule: Q04DX003 (ip), vehicle: saline with Tween-80
[11] = endpoint: mean survival time, dose: 200.0 mg/kg/injection, schedule: Q01DX009 (ip), vehicle: saline with Tween-80
[12] = endpoint: mean survival time, dose: 200.0 mg/kg/injection, schedule: Q04DX003 (ip), vehicle: saline with Tween-80
[13] = endpoint: mean survival time, dose: 400.0 mg/kg/injection, schedule: Q01DX009 (ip), vehicle: saline with Tween-80
[14] = endpoint: mean survival time, dose: 400.0 mg/kg/injection, schedule: Q04DX003 (ip), vehicle: saline with Tween-80
[15] = endpoint: mean survival time, dose: 100.0 mg/kg/injection, schedule: Q04DX003 (ip), vehicle: saline
[16] = endpoint: mean survival time, dose: 200.0 mg/kg/injection, schedule: Q01DX001 (ip), vehicle: saline
[17] = endpoint: mean survival time, dose: 400.0 mg/kg/injection, schedule: Q01DX001 (ip), vehicle: saline
[18] = endpoint: mean survival time, dose: 50.0 mg/kg/injection, schedule: Q04DX002 (ip), vehicle: saline with Tween-80

Measured: T/C

CN(/N=N/c1nc[nH]c1C(N)=O)C(C)(C)C
inactive: endpoint: mean survival time, dose: 18.75 mg/kg/injection, schedule: Q01DX009 (ip), vehicle: Klucel (hydroxypropylcellulose) (HPC) 96 % of control | endpoint: mean survival time, dose: 37.5 mg/kg/injection, schedule: Q01DX009 (ip), vehicle: Klucel (hydroxypropylcellulose) (HPC) 110 % of control | endpoint: mean survival time, dose: 75.0 mg/kg/injection, schedule: Q01DX009 (ip), vehicle: Klucel (hydroxypropylcellulose) (HPC) 109 % of control | endpoint: mean survival time, dose: 150.0 mg/kg/injection, schedule: Q01DX009 (ip), vehicle: Klucel (hydroxypropylcellulose) (HPC) 109 % of control | endpoint: mean survival time, dose: 300.0 mg/kg/injection, schedule: Q01DX009 (ip), vehicle: Klucel (hydroxypropylcellulose) (HPC) 103 % of control

CN1CCN(c2ccccc2)CC1
inactive: [1] 112 % of control

O=c1[nH]cnc2snc(Cl)c12
inactive: [2] 101 % of control | [3] 92 % of control | [4] 101 % of control | [5] 92 % of control | [6] 100 % of control | [7] 87 % of control

CC(=O)CCC(=O)C1SCCS1
inactive: [3] 101 % of control | [5] 97 % of control | [7] 101 % of control

O=c1ccccn1CCc1ccccc1
inactive: [8] 101 % of control | endpoint: mean survival time, dose: 25.0 mg/kg/injection, schedule: Q01DX009 (ip), vehicle: saline with Tween-80 98 % of control | endpoint: mean survival time, dose: 50.0 mg/kg/injection, schedule: Q01DX009 (ip), vehicle: saline with Tween-80 101 % of control

CC1C=CC(C)c2c(-c3ccccc3)oc(-c3ccccc3)c21 (stereo unspecified)
inactive: [9] 88 % of control | [10] 100 % of control | [11] 86 % of control | [12] 97 % of control | [13] 91 % of control | [14] 96 % of control

C1CN(CCSSCCN2CCOCC2)CCO1
inactive: endpoint: mean survival time, dose: 50.0 mg/kg/injection, schedule: Q01DX009 (ip), vehicle: saline sonified 100 % of control | endpoint: mean survival time, dose: 100.0 mg/kg/injection, schedule: Q01DX009 (ip), vehicle: saline sonified 100 % of control | [10] 104 % of control | endpoint: mean survival time, dose: 200.0 mg/kg/injection, schedule: Q01DX009 (ip), vehicle: saline sonified 103 % of control | [12] 104 % of control

ClCCn1c(CCl)nc2ccccc21
inactive: endpoint: mean survival time, dose: 10.0 mg/kg/injection, schedule: Q01DX009 (ip), vehicle: saline 98 % of control | endpoint: mean survival time, dose: 20.0 mg/kg/injection, schedule: Q01DX009 (ip), vehicle: saline 94 % of control

CC(C)C(=O)Nc1ccc(Cl)cc1
inactive: [9] 100 % of control | [11] 97 % of control

O=C(C[n+]1cccc(C(=O)NCc2ccccc2)c1)Nc1ccccc1
inactive: [15] 96 % of control

O=C(/C=C1/OCCN1C(=O)Nc1ccccc1)Nc1ccccc1
inactive: [10] 107 % of control | [12] 103 % of control | [14] 97 % of control

CCCN(CCC)S(=O)(=O)c1ccc(NC(=O)OC2CCCCCCC2)cc1
inactive: [1] 92 % of control | [16] 98 % of control | [17] 101 % of control

CC(=[N-])CC(C)=O.CC(=[N-])CC(C)=O.[Cu+2]
inactive: endpoint: mean survival time, dose: 3.13 mg/kg/injection, schedule: Q01DX009 (ip), vehicle: saline with Tween-80 100 % of control | endpoint: mean survival time, dose: 6.25 mg/kg/injection, schedule: Q01DX009 (ip), vehicle: saline with Tween-80 95 % of control | [8] 90 % of control

CN(N)C=O
inactive: endpoint: mean survival time, dose: 25.0 mg/kg/injection, schedule: Q04DX003 (ip), vehicle: saline 98 % of control | endpoint: mean survival time, dose: 50.0 mg/kg/injection, schedule: Q04DX003 (ip), vehicle: saline 94 % of control | [15] 102 % of control

O=C1CCn2c3ccccc3c3cccc1c32
inactive: [9] 101 % of control | [11] 101 % of control | [13] 96 % of control

O=C(/C=C/c1ccco1)c1cccnc1
inactive: [1] 94 % of control | [16] 100 % of control | [17] 100 % of control

CCc1ccc(C(C)(C)C)cc1
inactive: [10] 99 % of control | [12] 105 % of control

C=C1C2C(c3ccccc3)=CC(C1(C)C(Cl)Cl)C(C#N)(C#N)C2(C#N)C#N (stereo unspecified)
inactive: [18] 96 % of control | [3] 108 % of control | [5] 100 % of control

N/C(=N/N=C/c1cc(Br)cc(Br)c1O)NO
inactive: endpoint: median survival time, dose: 12.5 mg/kg/injection, schedule: Q01DX005 (ip), vehicle: suspension in saline 105 % of control | endpoint: median survival time, dose: 25.0 mg/kg/injection, schedule: Q01DX005 (ip), vehicle: suspension in saline 100 % of control | endpoint: median survival time, dose: 50.0 mg/kg/injection, schedule: Q01DX005 (ip), vehicle: suspension in saline 105 % of control | endpoint: median survival time, dose: 100.0 mg/kg/injection, schedule: Q01DX005 (ip), vehicle: suspension in saline 116 % of control

COC1=C(N)C(=O)c2nc(-c3nc(C(=O)O)c(C)c(-c4ccc(OC)c(OC)c4O)c3N)ccc2C1=O
inactive: endpoint: mean survival time, dose: 0.25 mg/kg/injection, schedule: Q01DX009 (ip), vehicle: saline with Tween-80 117 % of control | endpoint: mean survival time, dose: 0.5 mg/kg/injection, schedule: Q01DX009 (ip), vehicle: saline with Tween-80 100 % of control | endpoint: mean survival time, dose: 0.5 mg/kg/injection, schedule: Q04DX003 (ip), vehicle: saline with Tween-80 118 % of control | endpoint: mean survival time, dose: 1.0 mg/kg/injection, schedule: Q04DX003 (ip), vehicle: saline with Tween-80 105 % of control

CC(C)(C)C1CC[N-]CC1.CC(C)(C)C1CC[N-]CC1.O=[N+]([O-])O.O=[N+]([O-])O.[Pt+2]
inactive: [18] 98 % of control | [3] 98 % of control | [5] 95 % of control

Nc1ncnc2nc(SCc3cccc([N+](=O)[O-])c3)[nH]c12
inactive: [2] 96 % of control | [4] 90 % of control | [6] 90 % of control

O=c1cc(C(Cl)C2OC(CO)C(O)C2O)nc[nH]1 (stereo unspecified)
inactive: endpoint: median survival time, dose: 18.13 mg/kg/injection, schedule: Q01DX005 (ip), vehicle: saline 100 % of control | endpoint: median survival time, dose: 36.25 mg/kg/injection, schedule: Q01DX005 (ip), vehicle: saline 98 % of control | endpoint: median survival time, dose: 72.5 mg/kg/injection, schedule: Q01DX005 (ip), vehicle: saline 101 % of control | endpoint: median survival time, dose: 145.0 mg/kg/injection, schedule: Q01DX005 (ip), vehicle: saline 103 % of control

CCC(CO)Nc1nc2c(c(=O)n(C)c(=O)n2C)n1C (stereo unspecified)
inactive: endpoint: mean survival time, dose: 12.5 mg/kg/injection, schedule: Q01DX005 (ip), vehicle: distilled water + Tween-80 101 % of control | endpoint: mean survival time, dose: 25.0 mg/kg/injection, schedule: Q01DX005 (ip), vehicle: distilled water + Tween-80 100 % of control | endpoint: mean survival time, dose: 50.0 mg/kg/injection, schedule: Q01DX005 (ip), vehicle: distilled water + Tween-80 101 % of control | endpoint: mean survival time, dose: 100.0 mg/kg/injection, schedule: Q01DX005 (ip), vehicle: distilled water + Tween-80 94 % of control | endpoint: mean survival time, dose: 200.0 mg/kg/injection, schedule: Q01DX005 (ip), vehicle: distilled water + Tween-80 101 % of control

OCC(O)C(O)C(O)C(SCc1ccccc1)SCc1ccccc1 (stereo unspecified)
inactive: [2] 97 % of control | [4] 93 % of control | [6] 89 % of control

C=C(C)C(=O)OCCO (tested in a mixture with another compound)
inactive: [9] 106 % of control | [10] 98 % of control | [11] 101 % of control | [12] 98 % of control | [13] 100 % of control | [14] 100 % of control

CCCNC(=O)Oc1ccc(Br)cc1Br
inactive: endpoint: mean survival time, dose: 50.0 mg/kg/injection, schedule: Q01DX009 (ip), vehicle: Klucel (hydroxypropylcellulose) (HPC) 108 % of control | endpoint: mean survival time, dose: 100.0 mg/kg/injection, schedule: Q01DX009 (ip), vehicle: Klucel (hydroxypropylcellulose) (HPC) 97 % of control | endpoint: mean survival time, dose: 200.0 mg/kg/injection, schedule: Q01DX009 (ip), vehicle: Klucel (hydroxypropylcellulose) (HPC) 94 % of control

O=CC(O)C(O)C(O)C(O)C(O)CO (stereo unspecified)
inactive: [1] 94 % of control | [16] 103 % of control | [17] 97 % of control

O=C(NCCNC(=O)Nc1ccccc1Cl)Nc1ccccc1Cl
inactive: [3] 104 % of control | [5] 97 % of control | [7] 101 % of control

CC(=O)C1C(=O)C(=O)OC1C (stereo unspecified)
inactive: endpoint: mean survival time, dose: 50.0 mg/kg/injection, schedule: Q01DX009 (ip), vehicle: saline 102 % of control | endpoint: mean survival time, dose: 100.0 mg/kg/injection, schedule: Q01DX009 (ip), vehicle: saline 98 % of control | endpoint: mean survival time, dose: 200.0 mg/kg/injection, schedule: Q01DX009 (ip), vehicle: saline 101 % of control
